Assay in series [1]: not given
The source holds these as a separate data set.

Series [2] can be described thus: Kinetic solubility in aqueous media. Particulars: aqueous buffer, kinetic from dmso stock; phosphate citrate buffer pH 7.4, turbidity by nephelometer; read-out: Solubility Score. The format is physicochemical. The method, then:
Kinetic solubility in aqueous media measures the ability of a compound to stay in aqueous solution upon dilution (see example C.3).
DMSO-stock solutions are diluted with a single aqueous buffer solvent in 3 consecutive steps. For every dilution turbidity is measured with a nephelometer.
In the first dilution step, 10 μl of a concentrated stock-solution of the active compound, solubilized in DMSO (5 mM), was added to 100 μl phosphate citrate buffer pH 7.4 and mixed. In the second dilution step, an aliquot (20 μl) of the first dilution step was further dispensed in 100 μl phosphate citrate buffer pH 7.4 and mixed. Finally, in the third dilution step, a sample (20 μl) of the second dilution step was further diluted in 100 μl phosphate citrate buffer pH 7.4 and mixed. All dilutions were performed in 96-well plates. Immediately after the last dilution step the turbidity of the three consecutive dilution steps were measured with a nephelometer. Dilution was done in triplicate for each compound to exclude occasional errors. Based on the turbidity measurements a ranking is performed into 3 classes. Compounds with high solubility obtained a score of 3 and for this compounds the first dilution is clear. Compounds with medium solubility obtained a score of 2. For these compounds the first dilution is unclear and the second dilution is clear. […] The solubility of 9 compounds was measured.

For series [3], the target named is histone deacetylase (HeLa nuclear extracts). In words: In vitro assay for inhibition of histone deacetylase. It counts as biochemical. Particulars: HeLa nuclear extracts 60 μg/ml, [3H]acetylated histone H4 peptide substrate, 30 min. The protocol:
The in vitro assay for inhibition of histone deacetylase (see example C.1) measures the inhibition of HDAC enzymatic activity obtained with the compounds of formula (I).
HeLa nuclear extracts (supplier: Biomol) were incubated at 60 μg/ml with 2×10^−8 M of radiolabeled peptide substrate. As a substrate for measuring HDAC activity a synthetic peptide, i.e. the amino acids 14-21 of histone H4, was used. The substrate is biotinylated at the NH2-terminal part with a 6-aminohexanoic acid spacer, and is protected at the COOH-terminal part by an amide group and specifically [^3H]acetylated at lysine 16. The substrate, biotin-(6-aminohexanoic)Gly-Ala-([^3H]-acetyl-Lys-Arg-His-Arg-Lys-Val-NH2), was added in a buffer containing 25 mM Hepes, 1 M sucrose, 0.1 mg/ml BSA and 0.01% Triton X-100 at pH 7.4. After 30 min the deacetylation reaction was terminated by the addition of HCl and acetic acid. (final concentration […] respectively). After stopping the reaction, the free ^3H-acetate was extracted with ethylacetate. After mixing and centrifugation, the radioactivity in an aliquot of the upper (organic) phase was counted in β-counter.
For each experiment, controls (containing HeLa nuclear extract and DMSO without compound), a blank incubation (containing DMSO but no HeLa nuclear extract or compound) and samples (containing compound dissolved in DMSO and HeLa nuclear extract) were run in parallel. In first instance, compounds were tested at a concentration of 10^−5M. […] In each test the blank value was substracted from both the control and the sample values. The control sample represented 100% of substrate deactylation. For each sample the radioactivity was expressed as a percentage of the mean value of the controls. […] Herein the effects of test compounds are expressed as pIC50 (the negative log value of the IC50-value).

Series [4] concerns A2780 ovarian carcinoma cells. Description: Antiproliferative activity on A2780 cells (MTT). The settings on record: Homo sapiens, 96 h, four days of incubation, read-out: Cellular activity pIC50 (converted). The format is cell-based. The method, then: Cellular activity of the compounds of formula (I) was determined on A2780 tumour cells using a colorimetric assay for cell toxicity or survival (Mosmann Tim, Journal of Immunological Methods 65: 55-63, 1983)(see example C.2).
All compounds tested were dissolved in DMSO and further dilutions were made in culture medium. Final DMSO concentrations never exceeded 0.1% (v/v) in cell proliferation assays. Controls contained A2780 cells and DMSO without compound and blanks contained DMSO but no cells. MTT was dissolved at 5 mg/ml in PBS. A glycine buffer comprised of 0.1 M glycine and 0.1 M NaCl buffered to pH 10.5 with NaOH (1 N) was prepared (all reagents were from Merck).
The human A2780 ovarian carcinoma cells (a kind gift from Dr. T. C. Hamilton [Fox Chase Cancer Centre, Pennsylvania, USA]) were cultured in RPMI 1640 medium supplemented with 2 mM L-glutamine, 50 μg/ml gentamicin and 10% fetal calf serum. Cells were routinely kept as monolayer cultures at 37° C. in a humidified 5% CO2 atmosphere. Cells were passaged once a week using a trypsin/EDTA solution at a split ratio of 1:40. All media and supplements were obtained from Life Technologies. Cells were free of mycoplasma contamination as determined using the Gen-Probe Mycoplasma Tissue Culture kit (supplier: BioMérieux).
Cells were seeded in NUNC™ 96-well culture plates (Supplier: Life Technologies) and allowed to adhere to the plastic overnight. Densities used for plating were 1500 cells per well in a total volume of 200 μl medium. After cell adhesion to the plates, medium was changed and drugs and/or solvents were added to a final volume of 200 μl. Following four days of incubation, medium was replaced by 200 μl fresh medium and cell density and viability was assessed using an […] assay. To each well, 25 μl μl MTT solution was added and the cells were further incubated for 2 hours at 37° C. The medium was then carefully aspirated and the blue MT-formazan product was solubilized by addition of 25 μl glycine buffer followed by 100 μl of DMSO. […] Within an experiment, the results for each experimental condition are the mean of 3 replicate wells. For initial screening purposes, compounds were tested at a single fixed concentration of 10^−6 M. For active compounds, the experiments were repeated to establish full concentration-response curves. For each experiment, controls (containing no drug) and a blank incubation (containing no cells or drugs) were run in parallel. The blank value was subtracted from all control and sample values. For each sample, the mean value for cell growth (in absorbance units) was expressed as a percentage of the mean value for cell growth of the control. […] Herein the effects of test compounds are expressed as pIC50 (the negative log value of the IC50-value).

Values after ≈ are worked out from the molar mass of the structure shown. Read-outs that look alike come from different tables or passages of the source.

As a reminder, the melting point is the temperature, or range, at which the solid turns liquid. By solubility is commonly meant the concentration that dissolves in the medium under given conditions.

Take `COc1cc(N)c(Cl)cc1C(=O)NC1CCN(CCCOc2ccc(F)cc2)CC1OC` (stereo not shown) [Cisapride]: the “% metabolism” value (human, 15 min, 5 μM) is listed as 45%.

In series [1], `O=C(NO)c1cnc(N2CCC(NS(=O)(=O)c3ccc4ccccc4c3)CC2)nc1` [Co. No. 2] gave a melting point of 200 °C. Also, the solubility in series [2] is more than 455 µM. For the same molecule, the “Enzyme activity pIC50” value in series [3] is 6.104. For the same molecule, in series [4], the IC50 was 0.0271 µM.

In series [1], `O=C(NO)c1ccc(N2CCC(CNS(=O)(=O)c3ccc4ccccc4c3)CC2)nc1` [Co. No. 4] registered a melting point of 173 °C. Besides, the solubility in series [2] was less than 76 µM. The “Enzyme activity pIC50” value in series [3] is 7.574. The IC50 in series [4] is 1.36 µM.

As to `O=C(NO)c1cnc(N2CCC(CNS(=O)(=O)c3ccc4ccccc4c3)CC2)nc1` [Co. No. 5], in series [2], the solubility was less than 76 µM. Besides, the “Enzyme activity pIC50” value in series [3] is reported as 8.123. Moreover, the IC50 in series [4] was 0.369 µM.

In the case of `O=C(NO)c1cnc(N2CC[C@H](NS(=O)(=O)c3ccc4ccccc4c3)[C@H](CO)C2)nc1` [Co. No. 7], the melting point in series [1] was found to be 203 °C. Moreover, the solubility in series [2] is more than 455 µM. Besides, in series [3], the “Enzyme activity pIC50” value was found to be 7.533. In addition, the IC50 in series [4] is 9.62 µM.

`O=C(NO)c1cnc(N2CC[C@H](CNS(=O)(=O)c3ccc4ccccc4c3)[C@H](O)C2)nc1` [Co. No. 8] yielded a melting point in series [1] of 224 °C. In addition, the solubility in series [2] is more than 455 µM. Besides, the “Enzyme activity pIC50” value in series [3] came to 7.355. Further, the IC50 in series [4] was 3.04 µM.

`O=C(NO)c1cnc(N2CCC(O)(CNS(=O)(=O)c3ccc4ccccc4c3)CC2)nc1` [Co. No. 9]: the melting point in series [1] was 228 °C. In addition, in series [2], the solubility is 76 to 455 µM (≈ 34.8 to 208 µg/mL). Besides, the “Enzyme activity pIC50” value in series [3] was found to be 7.579. The IC50 in series [4] is more than 10 µM.

In series [1], `CN(C1CCN(c2ncc(C(=O)NO)cn2)CC1)S(=O)(=O)c1ccc2ccccc2c1` [Co. No. 29] gave a melting point of more than 260 °C. In addition, the “Enzyme activity pIC50” value in series [3] was determined as 7.04. The IC50 in series [4] was 3.72 µM.

On to `O=C(NO)c1ccc(N2CCC(NS(=O)(=O)c3ccc(-c4ccccc4)cc3)CC2)nc1` [compound 15], for which, in series [2], the solubility was less than 76 µM. For the same molecule, the “Enzyme activity pIC50” value in series [3] is listed as 7.413. In addition, the IC50 in series [4] was 1.24 µM.

As to `CCCO` [propanol], the “% metabolism” value (15 min incubation with active microsomes (1 mg/ml), compound 5 μM) came to 25%.
